From publication PMC2861356 (Clinical cancer research : an official journal of the …, 2009)
Where two headings read alike, the source gives them in different places.

Experiments:
[1] = system: surgically incurable GIST; conditions: cited from earlier work
clinical [2] = conditions: human, plasma, oral; for Cmax: Imatinib Cmax, mean ± SD; for Tmax: Imatinib tmax, median (range)
[3] = system: imatinib-resistant gastrointestinal stromal tumors (GIST); assay: Tumor response; assay type: in vivo, human
clinical [4] = conditions: human, serum, oral
[5] = system: patients with advanced imatinib-resistant gastrointestinal stromal tumors (GIST)
[6] = Nilotinib serum pharmacokinetics at steady-state
GIST = GIST after imatinib; cited from earlier work
[7] = Cohort 2 (n=6), imatinib 400 mg bid with nilotinib 200 mg qd, Day 8
[8] = 400 mg, Cohort 3 (n=7), imatinib 400 mg bid alone, Day -1
[9] = 400 mg, Cohort 3 (n=7), imatinib 400 mg bid with nilotinib 400 mg qd, Day 8

For `Cc1ccc(NC(=O)c2ccc(CN3CCN(C)CC3)cc2)cc1Nc1nccc(-c2cccnc2)n1` [Imatinib], the “Patients with primary resistance within the first 6 months of therapy” value ([1]; estimated) is listed as 5-14%, the “Median time of therapy until secondary resistance” value ([1]; most patients) is listed as 2 years and the Median survival ([1]; surgically incurable GIST) is listed as roughly 5 years. The Tumor control rates ([1]; surgically incurable GIST) was greater than 80%, the “Imatinib Cavg, mean ± SD” value (Cohort 2 (n=6), imatinib 400 mg bid alone, Day -1) was 2381 ± 1181 ng/mL and the “Imatinib Cavg, mean ± SD” value [7] was 2768 ± 1039 ng/mL. For the same compound, the “Imatinib Cavg, mean ± SD” value (Cohort 3 (n=7), imatinib 400 mg bid alone, Day -1) was 3594 ± 2195 ng/mL, the “Imatinib Cavg, mean ± SD” value (Cohort 3 (n=7), imatinib 400 mg bid with nilotinib 400 mg qd, Day 8) was 3735 ± 1212 ng/mL and the “Imatinib Cavg, mean ± SD” value (Cohort 4 (n=5), imatinib 400 mg bid alone, Day -1) was 3556 ± 1523 ng/mL. The “Imatinib Cavg, mean ± SD” value (Cohort 4 (n=5), imatinib 400 mg bid with nilotinib 400 mg bid, Day 8) was 4285 ± 2325 ng/mL, the Cmax (clinical [2]; 400 mg, Cohort 2 (n=6), imatinib 400 mg bid alone, Day -1) was 2770 ± 1140 ng/mL and the Cmax (clinical [2]; [8]) was 4020 ± 2170 ng/mL. The Cmax (clinical [2]; [9]) was 4200 ± 1120 ng/mL, the Cmax (clinical [2]; 400 mg, Cohort 4 (n=5), imatinib 400 mg bid alone, Day -1) was 4170 ± 1760 ng/mL and the Cmax (clinical [2]; 400 mg, Cohort 4 (n=5), imatinib 400 mg bid with nilotinib 400 mg bid, Day 8) was 5070 ± 2760 ng/mL. For the same compound, the Tmax (clinical [2]; [8]) was 4.8 h, the Tmax (clinical [2]; [9]) was 2.4 h and the Cmax (clinical [2]; [7]) was 3370 ± 1120 ng/mL. For the same compound, the Tmax (clinical [2]; [7]) was 2.9 h.

For `Cc1cn(-c2cc(NC(=O)c3ccc(C)c(Nc4nccc(-c5cccnc5)n4)c3)cc(C(F)(F)F)c2)cn1` [Nilotinib], the “Best overall response: Complete response” value ([3]; Nilotinib 400 mg bid n=18) was 0 n (%), the “Best overall response: Partial response” value ([3]; Nilotinib 400 mg bid n=18) was 1 (6) n (%) and the “Best overall response: Progressive disease” value ([3]; Nilotinib 400 mg bid n=18) was 2 (11) n (%). The “Best overall response: Stable disease” value ([3]; Nilotinib 400 mg bid n=18) was 13 (72) n (%), the “Best overall response: Unknown (could not be classified)” value ([3]; Nilotinib 400 mg bid n=18) was 1 (6) n (%) and the “Progression-free survival, Kaplan-Meier rate at 4 months” value ([3]; Nilotinib 400 mg bid n=18) was 59%. The “Progression-free survival, Kaplan-Meier rate at 6 months” value ([3]; Nilotinib 400 mg bid n=18) was 47%, the “Progression-free survival, median” value ([3]; Nilotinib 400 mg bid n=18) was 168 days and the “Progression-free survival, range” value ([3]; Nilotinib 400 mg bid n=18) was 1 to 393 days. The “Patients with stable disease” value ([3]; all cohorts) was “Thirty-eight”, the “Discontinuation of study for disease progression” value ([3]; all cohorts, n=32) was 60% and the “Progression-free survival, range” value ([3]; all patients) was 1 to 393 days. For the same compound, the Median progression-free survival ([3]; entire group, all patients) was 134 days, the “Stable disease lasting >6 months” value ([3]; single-agent nilotinib group, 5 patients) was 28% and the “Stable disease lasting >4 months” value ([3]; single-agent nilotinib group, 9 patients) was 50%. It also gave an AUC(0-t) (clinical [4]) of 13600 ± 6620 ng·h/mL, a Cmax (clinical [4]; 400 mg bid) of 1640 ± 828 ng/mL and a Tmax (clinical [4]; 400 mg bid) of 2.8 h. For the same compound, the “Discontinuation of study for death” value ([5]; all cohorts, n=2) was 4%, the “Abdominal pain, overall frequency of AE” value ([5]; human, in vivo) was 36% and the “Discontinuation of study for AEs” value ([5]; human, in vivo) was 6%. For the same compound, the “Fatigue, overall frequency of AE” value ([5]; human, in vivo) was 38%, the “Grade 3 elevations of AST or ALT” value ([5]; human, in vivo) was less than 2% and the “Grade 3 or 4 laboratory abnormality: hyperbilirubinemia” value ([5]; human, in vivo) was 8%. The “Grade 3 or 4 toxicities, patients overall” value ([5]; human, in vivo) was 49%, the “Nausea, overall frequency of AE” value ([5]; human, in vivo) was 36% and the “Post-baseline QTcF interval >480 msec” value ([5]; human, in vivo) was 13%. For the same compound, the “QTcF >500 msec” value ([5]; human, in vivo) was “no QTcF >500 msec was reported”, the “Rash, overall frequency of AE” value ([5]; human, in vivo) was 40% and the “Severe AEs (grade 3 or 4): abdominal pain” value ([5]; human, in vivo) was 13%. For the same compound, the “Dose deemed appropriate for Phase II studies” value ([5]; human, in vivo, 28 days) was 400 mg bid, the “Dose-limiting toxicity: grade 3 hyperbilirubinemia, frequency” value ([5]; human, in vivo, 28 days) was 6% and the Thrombocytopenia episodes ([5]; in vivo) was “no episodes of thrombocytopenia”. For the same compound, the “Slope of Cavg versus total nilotinib daily dose (power model)” value ([6]; combination cohorts) was 0.946, the “Slope of Cmax versus total nilotinib daily dose (power model)” value ([6]; combination cohorts) was 0.881 and the “Nilotinib AUC0-t higher than in single-agent cohort” value ([6]; nilotinib 400 mg bid combination cohorts, second value) was 18%. The “Nilotinib oral clearance, mean CL/F across the combination groups” value ([6]; nilotinib with imatinib, 4 combination cohorts) was 19.1 to 25.6 L/h.

For `CCN(CC)CCNC(=O)c1c(C)[nH]c(/C=C2\C(=O)Nc3ccc(F)cc32)c1C` [Sunitinib], the “Duration of benefit of second-line therapy” value (GIST) is given as “approximately 9 months”.
